Test results: US20190224279A1, “PHARMACEUTICAL ASSOCIATION COMPRISING A GROWTH FACTOR RECEPTOR AGONIST CONJUGATED TO A BIOACTIVE CARRIER FOR CONVERTING A NEOPLASTIC CELL INTO A NON-NEOPLASTIC CELL AND USES THEREOF” (HISTIDE AG, priority 2015, published 2019)
No end group written: not given here.

Columns and labels:
[1] = Stability of non-covalent association, release of FITC-labelled GFR-binding compound from carrier; format: physicochemical; details: SEQ ID NO: 9 with apatite ceramics, SEQ ID NO: 10 with type-I collagen sponge; after 3, 7 or 10 days
Method: Non-covalent associations of the bioactive carriers were performed under atmospheric conditions (air) at room temperature (about 22° C.). The non-covalent association was carried out using a mixture of GFR-binding compound of SEQ ID NO: 9 (concentration of 1×10^−3 M) with the apatite ceramics or a mixture of GFR-binding compound of SEQ ID NO: 10 (concentration of 1×10^−3M) with the type-I collagen sponge. The non-covalent pharmaceutical associations were characterized by covalently associating fluorescent GFR-binding compounds of SEQ ID NO: 9 and 10 (covalently bound to fluorescein isothiocyanate (FITC), FIG. 1).

Paxillin = Paxillin gene expression by RT-PCR; format: cell-based, human; details: osteosarcoma cells on PET associations; 24 hours
Method: (§1) After 24 hours of culture, total RNA was extracted by using the RNeasy total RNA kit (Qiagen®) according to the manufacturer's instructions. Purified total RNA was used as a template in order to make cDNA by a reverse transcription reaction (Gibco BrI®) with random primers (Invitrogen®). The cDNA was then used as a template for a real-time PCR amplification in the presence of SYBR green reagents (Bio-Rad®) by using a thermocycler (iCycler, Biorad®). Data were analyzed with the iCycler IQ™® software and compared by the ΔΔCt method. Briefly, the mean Ct value of the target gene was normalized to its averaged Ct values of the housekeeping gene (GAPDH) to give a ΔCt value, which was then normalized to a control sample to obtain a ΔΔCt value. The results were obtained from two series of experiments performed in triplicate.
(§2) Neoplastic cells (in this example osteosarcoma cells) were cultured on pharmaceutical associations comprising PET as a bioactive carrier and one of GFR-binding compounds of SEQ ID NO: 12, 19, 30 or 39. After 24 hours, the Paxillin and Vinculin gene expression decreased as shown by RT-PCR (FIG. 9).

ERK = assay: Adhesion checkpoint activation, western blot of ERK phosphorylation (Ras/MAP kinase); format: cell-based, human; details: osteosarcoma cells on PET associations; 24 hours
Method: (§3) After 24 hours of culture, cells were permeabilized (10% SDS, 25 mM NaCl, 10 nM pepstatin and 10 nM leupeptin in distilled water and loading buffer), boiled for 10 minutes and resolved by reducing PAGE (Invitrogen). Proteins were transferred onto nitrocellulose, blocked, and labeled with HRP-conjugated antibodies (Invitrogen). Integrin αv, α5, α3, α4, β1, β, β5 and […] were blotted by treating the nitrocellulose with monoclonal anti-integrin (extracellular domain) αv, α5, α3, α4, β1, β3, β5 and β6 antibodies (Santa Cruz Biotechnology). Phosphor-Smad1/5/8 was blotted by treating the nitrocellulose with monoclonal anti-p-Smad1/5/8 (Santa Cruz Biotechnology). For all of the experiments the western blot was performed in triplicate, along with an additional blot for actin and coomassie blue staining to ensure constant protein load among samples.
(§4) Neoplastic cells (in this example osteosarcoma cells) were cultured on pharmaceutical associations comprising PET as a bioactive carrier and one of GFR-binding compounds of SEQ ID NO: 12, 19, 30 or 39. The main signaling pathways include: Ras/MAP kinase, FAK/Src kinase and PIP2 which are decreased after 24 hours as shown by western blot quantifications (FIG. 8). […] Finally, a decrease of 3-phosphoinositide-dependent protein kinase 1 (PDK1) protein expression was also was observed (FIG. 8C).

[2] = test system: Cyclin D (arithmetic mean of Cyclin D1, Cyclin D2 and Cyclin D3); assay: Cyclin D profile by RT-PCR; format: cell-based, human; details: osteosarcoma cells on PET associations; after the first 30 min of cell culture
Method: as §1
Neoplastic cells (in this example osteosarcoma cells) were cultured on pharmaceutical associations comprising PET as a bioactive carrier and one of GFR-binding compounds of SEQ ID NO: 12, 19, 30 or 39. The Cyclin D (the arithmetic mean of Cyclin D1, Cyclin D2 and Cyclin D3) gene expression decreased after the first 30 min of cell culture as shown by RT-PCR (FIG. 10).

[3] = test system: 3-phosphoinositide-dependent protein kinase 1 (PDK1); assay: Adhesion checkpoint activation, western blot of PDK1 protein expression (PIP2); format: cell-based, human; details: osteosarcoma cells on PET associations; 24 hours
Method: as §3, §4

Vinculin = Vinculin gene expression by RT-PCR; format: cell-based, human; details: osteosarcoma cells on PET associations; 24 hours
Method: as §1, §2

Src kinase = assay: Adhesion checkpoint activation, western blot of Src kinase phosphorylation (FAK/Src kinase); format: cell-based, human; details: osteosarcoma cells on PET associations; 24 hours
Method: as §3, §4

[4] = test system: neoplastic cells (osteosarcoma cells); assay: Immunofluorescence visualization (actin, vinculin, DAPI) of neoplastic cells on grafted polymer scaffold, 24 hours; format: cell-based; details: polymer scaffold covalently modified with mixture of GFR-binding compound and RGD peptide; 24 hours of culture
Method: FIG. 12 is (a) a representation of a Quantitative Real Time PCR analysis of the expression of DMP-1, SCT and RANK-L in neoplastic cells (osteosarcoma cells) cultured on a native polymer scaffold (control) and on a polymer scaffold grafted with a mixture comprising a GFR-binding compound as defined in the present disclosure and a RGD peptide, after 24 hours of culture, (b) immunofluorescence staining of a representative neoplastic cell (osteosarcoma cells) cultured on a polymer scaffold grafted with a mixture comprising a GFR-binding compound as defined in the present disclosure (ID SEQ NO: 2) and a RGD peptide, after 24 hours of culture. The actin filaments were immunostained by using Alexa 488-phalloidin. The focal adhesions were represented by immunostaining with anti-vinculin. The nucleus was stained with DAPI and is represented by a circle in the center of the cell. Scale bar: 5 μm. (c) is a diagram representing the grafting density of a radiolabeled GFR-binding compound as defined in the present disclosure covalently grafted on a polymer scaffold and of a radiolabeled GFR-binding compound and a non-labeled RGD peptide both grafted on a polymer scaffold. The measurements were performed by using radioactivity quantification (no significant difference was observed). […]

Substance	release of GFR-binding compound from non-covalent association [1]	Paxillin gene expression (Paxillin)	phosphorylation at Thr202 and Tyr204 on ERK (ERK)	Cyclin D gene expression [2]	PDK1 protein expression [3]	Vinculin gene expression (Vinculin)	phosphorylation of Src kinase (Src kinase)	Morphology of neoplastic cells by immunofluorescence visualization [4]
SEQ ID NO: 10: GFR-binding compound non-covalently associated with type-I collagen sponge; sequence only in the sequence listing (PSSAPTQLSATSVLYYDDSSNVILRKHR; not fully specified)	no significant release							
SEQ ID NO: 39: GFR-binding compound covalently associated with PET as bioactive carrier; sequence only in the sequence listing (KASSVPTELSPISTLYKDENEKVVLKYHYDMVV; also: covalently attached to PET)		decreased	absence of phosphorylation	decreased	decrease	decreased	no phosphorylation at Thr416 but phosphorylation of Tyr527	
SEQ ID NO: 2: a GFR-binding compound as defined in the present disclosure, grafted on a polymer scaffold in a mixture with a RGD peptide (KVGKASSVPTKLSAISTLYLDDMGVPTLKNYQNMVVRASGSH; also: grafted on polymer scaffold in mixture with RGD peptide)								Spheroid-like structures of neoplastic cells become predominant
SEQ ID NO: 30: GFR-binding compound covalently associated with PET as bioactive carrier; sequence only in the sequence listing (APTKLSAISMLYYDSSNNVIEQLSN; also: covalently attached to PET)		decreased	absence of phosphorylation	decreased	decrease	decreased	no phosphorylation at Thr416 but phosphorylation of Tyr527	
SEQ ID NO: 12: GFR-binding compound covalently associated with PET as bioactive carrier; sequence only in the sequence listing (KVGKASSVPTKLSAISMLYLDDMGVPTLKNYQNMVVRAS; also: covalently attached to PET (bioactive carrier), site not given here)		decreased	absence of phosphorylation	decreased	decrease	decreased	no phosphorylation at Thr416 but phosphorylation of Tyr527	
SEQ ID NO: 9: GFR-binding compound non-covalently associated with apatite ceramics; sequence only in the sequence listing (RNVQCRPTQVQLSAISTLYLEIVRKKPLKNYQTLEDH; non-covalently associated with apatite ceramics; Non-cyclic GFR-binding peptide)	no significant release							
SEQ ID NO: 19: GFR-binding compound covalently associated with PET as bioactive carrier; sequence only in the sequence listing (PSSAPTQLSATSMLYYDDSSNVILRKHRQHNK; also: covalently attached to PET)		decreased	absence of phosphorylation	decreased	decrease	decreased	no phosphorylation at Thr416 but phosphorylation of Tyr527	
